Target: T1, human α7 nAChR (Homo sapiens, UniProt P36544)
T1 construct: expressed in transfected cells; host or cells: GH4C1 cells (rat pituitary, ATCC CCL-82.2)
Assay: Evaluation of PAM activity with human α7 nACh receptor stably expressing cells (aequorin luminescence, FDSS7000)
Format: cell-based
Conditions: ratio of RLU (Max-Min) of test wells to control wells, ACh at EC20
Text: Evaluation of PAM Activity with Human α7 nACh Receptor Stably Expressing Cells
(1) Human α7 nAChR stably expressing cells
Human α7 nAChR stably expressing cells were generated and cultured. In detail, GH4C1 cells derived from rat pituitary (cat#CCL-82.2, ATCC, USA) were used as a host cell. PcDNA3.1Zeo vector containing a nucleotide sequence encoding a protein GenBank BAC81731 and pcDNA3.1 vector containing human α7 nAChR gene (cat#V790-20, invitrogen, Carlsbad, Calif., USA) were transfected to the cells to give aequorins and human α7 nAChR stably expressing cells respectively. The aequorins and human α7 nAChR stably expressing cells were screened with Zeocin (cat#R25001, invitrogen, Carlsbad, Calif., USA) and Geneticin (cat#10131-027, invitrogen, Carlsbad, Calif., USA) respectively.
The cells were cultured in F-10 Nutrient Mixture (Ham) medium (cat#11550-043, invitrogen, Carlsbad, Calif., USA) containing 2.5% fetal bovine serum (cat#2917354, ICN Biomedicals, Inc, USA), 15% inactivated horse serum (cat#26050-088, invitrogen, Carlsbad, Calif., USA), 1 μg/mL Geneticin, and 5 μg/mL Puromycin (cat#14861-84, invitrogen, Carlsbad, Calif., USA), in a Collagen Type 1-coated dish (cat#4030-010, iwaki, Tokyo, Japan). During the culture, the medium was replaced with fresh medium in every 2 to 3 days, and the cells were treated with TrypLE Express (cat#45604-021, invitrogen, Carlsbad, Calif., USA) to collect them in every 7 days. Thus, the cells were subcultured.
7 Days after subculturing, the cells were treated with TrypLE Express to collect them when they were about 80% confluent. The cells were suspended in a reaction medium containing Hanks (cat#14065-056, invitrogen, Carlsbad, Calif., USA)/20 mmol/L Hepes (cat#15630-080, invitrogen, Carlsbad, Calif., USA), Buffer (pH 7.4), F-10 Nutrient Mixture (Ham), and 0.1 mg/mL Geneticin, and the suspension was seeded in a 384-well plate (cat#781090, Greiner, Germany) at 20000 cells/25 μL per well.
On the next day after seeding, Viviren (cat#E649X, Promega, Madison, Wis., USA) was added to the medium so that the final concentration could be 4 μmol/L (15 μL/well). The plates were centrifuged and then placed in the dark for 4 hours at room temperature.
(2) Preparation of the Test Samples
Each of the test compounds was dissolved in DMSO to prepare each test sample at a concentration of 1000-fold the final concentration. To the solution was added Hanks/20 mM HEPES/0.2% BSA (cat#A3803, Sigma, St. Louis, Mo., USA), and the concentration was adjusted to 6-fold the final concentration.
(3) Evaluation of PAM Activity
FDSS7000 (Hamamatsu Photonics) was used to detect the luminescence signal evoked by α7 nAChR stimulation. The cells and a luminescent substrate were put on a plate, and the test sample was added thereto. […] After the addition of ACh, the luminescence signal (the central wavelength: 465 nm) was measured for 138 seconds to calculate RLU (Max-Min). The ratio of the RLU (Max-Min) of the test-compound-containing wells to that of the control wells was defined as PAM activity.

T1 sequence (P36544 23-502): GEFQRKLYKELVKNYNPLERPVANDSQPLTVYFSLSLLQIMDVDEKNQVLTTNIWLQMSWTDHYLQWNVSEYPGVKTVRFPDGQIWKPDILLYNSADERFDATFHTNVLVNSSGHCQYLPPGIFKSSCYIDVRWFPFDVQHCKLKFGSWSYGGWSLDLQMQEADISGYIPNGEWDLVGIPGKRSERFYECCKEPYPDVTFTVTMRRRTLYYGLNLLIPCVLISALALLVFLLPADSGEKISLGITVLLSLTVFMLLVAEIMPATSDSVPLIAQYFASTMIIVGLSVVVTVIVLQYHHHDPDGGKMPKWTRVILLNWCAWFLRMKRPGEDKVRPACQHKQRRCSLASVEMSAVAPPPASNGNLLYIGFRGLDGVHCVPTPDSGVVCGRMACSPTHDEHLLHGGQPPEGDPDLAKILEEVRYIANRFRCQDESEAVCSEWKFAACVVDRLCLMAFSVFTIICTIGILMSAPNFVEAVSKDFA

Compound | PAM activity for α7 nAChR (in words)
CCc1ccc2c(cnn2[C@H]2CC[C@@H](NC(=O)C3CCC(F)(F)CC3)CC2)c1 [Example 4, N-(cis-4-(5-ethyl-1H-indazol-1-yl)cyclohexyl)-4,4-difluorocyclohexanecarboxamide] | stronger PAM activity than others
CCc1ccc2c(cnn2C2CCN(C(=O)NC3CCC(F)(F)CC3)CC2)c1 [Example 23] | stronger PAM activity than others
CCc1ccc2c(cnn2[C@H]2CC[C@@H](NC(=O)C3CCCCC3)CC2)c1 [Example 119] | stronger PAM activity than others
CCc1ccc2c(cnn2C2CCN(C(=O)NC3CCCC3)CC2)c1 [Example 20] | stronger PAM activity than others
Cc1ccc2c(cnn2C2CCN(C(=O)NC3CCC(F)(F)CC3)CC2)c1 [Example 13, N-(4,4-difluorocyclohexyl)-4-(5-methyl-1H-indazol-1-yl)piperidine-1-carboxamide] | stronger PAM activity than others
Cc1ccc2c(cnn2C2CCN(C(=O)NC3CCCCC3)CC2)c1 [Example 8, N-cyclohexyl-4-(5-methyl-1H-indazol-1-yl)piperidine-1-carboxamide] | stronger PAM activity than others
CCOc1ccc2c(cnn2C2CCN(C(=O)NC3CCCCC3)CC2)c1 [Example 18, N-cyclohexyl-4-(5-ethoxy-1H-indazol-1-yl)piperidine-1-carboxamide] | stronger PAM activity than others
COc1ccc2c(cnn2C2CCN(C(=O)NC3CCCCC3)CC2)c1 [Example 40] | stronger PAM activity than others
COc1ccc2c(cnn2C2CCN(C(=O)NC3CCC(F)(F)CC3)CC2)c1 [Example 41, N-(4,4-difluorocyclohexyl)-4-(5-methoxy-1H-indazol-1-yl)piperidine-1-carboxamide] | stronger PAM activity than others
CCOc1ccc2c(cnn2C2CCN(C(=O)NC3CCCC3)CC2)c1 [Example 17] | stronger PAM activity than others

Same assay, conditions: test compound 10 μmol/L; ACh at EC20; ratio of RLU (Max-Min) of test-compound wells to control wells; human α7 nAChR expressing GH4C1 cells

Compound | α7PAM (%) @ 10 μmol/L [%]
CO[C@H]1CCC[C@H](NC(=O)N2CCC(n3ncc4cc(C5CC5)ccc43)CC2)C1 [Example 211, 4-(5-cyclopropyl-1H-indazol-1-yl)-N-[(1S,3S)-3-methoxycyclohexyl]piperidine-1-carboxamide] | 1034
CCc1ccc2c(cnn2C2CCN(C(=O)NC3CCCOC3)CC2)c1 (centres unmarked) [Example 22, 4-(5-ethyl-1H-indazol-1-yl)-N-(tetrahydro-2H-pyran-3-yl)piperidine-1-carboxamide] | 1425
CCc1ccc2c(cnn2[C@H]2CC[C@@H](NC(=O)[C@H]3CC[C@H](OC)CC3)CC2)c1 [Example 122] | 410
CCCc1ccc2c(cnn2C2CCN(C(=O)NC3CCC(OC)CC3)CC2)c1 (centres unmarked) [Example 76] | 420
CCOc1cccc2c1cnn2C1CCN(C(=O)N[C@H]2CC[C@@H](OC)CC2)CC1 [Example 184] | 200
CO[C@H]1CC[C@H](NC(=O)N2CCC(n3ncc4cc(OC(F)F)ccc43)CC2)CC1 [Example 291, 4-[5-(difluoromethoxy)-1H-indazol-1-yl]-N-(trans-4-methoxycyclohexyl)piperidine-1-carboxamide] | 1433
CCc1ccc2c(cnn2[C@H]2CC[C@@H](NC(=O)C3CCC(F)(F)CC3)CC2)c1 [Example 4, N-(cis-4-(5-ethyl-1H-indazol-1-yl)cyclohexyl)-4,4-difluorocyclohexanecarboxamide] | 2344
CCc1cccc2c1cnn2C1CCN(C(=O)NC2CCC(F)(F)CC2)CC1 [Example 64, N-(4,4-difluorocyclohexyl)-4-(4-ethyl-1H-indazol-1-yl)piperidine-1-carboxamide] | 1133
O=C(NC1CCC(F)(F)CC1)N1CCC(n2ncc3cc(OC4CC4)ccc32)CC1 [Example 249, 4-[5-(cyclopropoxy)-1H-indazol-1-yl]-N-(4,4-difluorocyclohexyl)piperidine-1-carboxamide] | 1463
O=C(NC1CCOCC1)N1CCC(n2ncc3c(OC(F)(F)F)cccc32)CC1 [Example 304] | 380
COC(C)c1c(C)ccc2c1cnn2C1CCN(C(=O)NC2CCC(F)(F)CC2)CC1 (centres unmarked) [Example 232] | 860
Cc1ccc2c(cnn2C2CCN(C(=O)NC3CCC(OCC(F)(F)F)CC3)CC2)c1 (centres unmarked) [Example 83] | 420
CC(C)Oc1ccc2c(cnn2C2CCN(C(=O)NC3CCCCC3)CC2)c1 [Example 48, N-cyclohexyl-4-(5-isopropoxy-1H-indazol-1-yl)piperidine-1-carboxamide] | 1202
CCc1ccc2c(cnn2[C@H]2CC[C@@H](NC(=O)NC3CCC(F)(F)CC3)CC2)c1 [Example 5, 1-(4,4-difluorocyclohexyl)-3-(cis-4-(5-ethyl-1H-indazol-1-yl)cyclohexyl)urea] | 1368
Cc1ccc2c(cnn2C2CCN(C(=O)NC3CCC(F)(F)CC3)CC2)c1 [Example 13, N-(4,4-difluorocyclohexyl)-4-(5-methyl-1H-indazol-1-yl)piperidine-1-carboxamide] | 3399
Cc1ccc2c(c1)c(C)nn2C1CCN(C(=O)NC2CCC(F)(F)CC2)CC1 [Example 45, N-(4,4-difluorocyclohexyl)-4-(3,5-dimethyl-1H-indazol-1-yl)piperidine-1-carboxamide] | 1576
O=C(NC1CCC(F)(F)CC1)N1CCC(n2ncc3c(OC(F)F)cccc32)CC1 [Example 201] | 370

Compound | α7PAM (%) @ 10 μmol/L [%]
CCc1ccc2c(cnn2C2CCN(C(=O)C3CCOCC3)CC2)c1 [Example 111] | 410
CCCc1ccc2c(cnn2C2CCN(C(=O)NC3CCOCC3)CC2)c1 [Example 15, 4-(5-propyl-1H-indazol-1-yl)-N-(tetrahydro-2H-pyran-4-yl)piperidine-1-carboxamide] | 1025
O=C(C1CCOCC1)N1CCC(n2ncc3cc(F)ccc32)CC1 [Example 104] | 190
Cc1ccc2c(cnn2C2CCN(C(=O)N[C@H]3CCCCC3(F)F)CC2)c1 [Example 79, (S)—N-(2,2-difluorocyclohexyl)-4-(5-methyl-1H-indazol-1-yl)piperidine-1-carboxamide] | 1064
COC1CCC(NC(=O)N2CCC(n3ncc4c(Br)cccc43)CC2)CC1 (centres unmarked) [Example 98] | 89
CCO[C@H]1CC[C@H](NC(=O)N2CCC(n3ncc4cc(C)ccc43)CC2)CC1 [Example 90, N-(trans-4-ethoxycyclohexyl)-4-(5-methyl-1H-indazol-1-yl)piperidine-1-carboxamide] | 1467
Cc1ccc2c(cnn2C2CCN(C(=O)N[C@H]3CCCC3(F)F)CC2)c1 [Example 80, (S)—N-(2,2-difluorocyclopentyl)-4-(5-methyl-1H-indazol-1-yl)piperidine-1-carboxamide] | 1033
COCc1nn(C2CCN(C(=O)NC3CCCCC3)CC2)c2ccc(C)cc12 [Example 68] | 430
Cc1ccc2c(cnn2C2CCN(C(=O)NC3CCCCC3)CC2)c1 [Example 8, N-cyclohexyl-4-(5-methyl-1H-indazol-1-yl)piperidine-1-carboxamide] | 3053
O=C(NC1CCOCC1)N1CCC(n2ncc3cc(C(F)(F)F)ccc32)CC1 [Example 297] | 340
COc1c(C(F)(F)F)ccc2c1cnn2C1CCN(C(=O)NC2CCC(OC)CC2)CC1 (centres unmarked) [Example 317] | 360
CCOc1ccc2c(cnn2C2CCN(C(=O)NC3CCCCC3)CC2)c1 [Example 18, N-cyclohexyl-4-(5-ethoxy-1H-indazol-1-yl)piperidine-1-carboxamide] | 6779
CCOc1ccc2c(cnn2C2CCN(C(=O)NC3CCC(F)(F)CC3)CC2)c1 [Example 27, N-(4,4-difluorocyclohexyl)-4-(5-ethoxy-1H-indazol-1-yl)piperidine-1-carboxamide] | 1673
CO[C@H]1CC[C@H](NC(=O)N2CCC(n3ncc4c(C)c(C)ccc43)CC2)CC1 [Example 225] | 480
O=C(Nc1ccc(C(F)(F)F)nc1)N1CCC(n2ncc3cc(C4CC4)ccc32)CC1 [Example 187] | 220
COc1ccc2c(cnn2C2CCN(C(=O)NC3CCC(F)(F)CC3)CC2)c1 [Example 41, N-(4,4-difluorocyclohexyl)-4-(5-methoxy-1H-indazol-1-yl)piperidine-1-carboxamide] | 3749
COCc1c(C)ccc2c1cnn2C1CCN(C(=O)NC2CCC(F)(F)CC2)CC1 [Example 213] | 800

Source: patent US9309221B2, “1-substituted indazole derivative” (Dainippon Sumitomo Pharma Co., Ltd., priority 2012, dated 2016)
